The source of these data is patent US20120035206A1, “PREPARATION AND APPLICATION OF NOVEL ANTIBACTERIAL AND ANTICANCER COMPOUNDS AND THEIR DERIVATIVES” (priority 2009, published 2012).

In brackets after ≈: the same amount, converted by molar mass.

Format in all cases: cell-based
The test system of one assay is Terchoderma. Nature of the assay: In vitro antibacterial (antifungal) test, two-fold dilution MIC. Conditions: Trichoderma, RPMI 1640, culture 2-7 days.
In another assay the test system is C. albicans. The description is as above. Conditions: Candida albicans, read-out: MIC C. albicas.
The next assay has as its system S. schenekn. The description is as above. Particulars: RPMI 1640, culture 2-7 days.
The subject of the next assay is gibberella. The description is as above. Conditions: RPMI 1640, culture 2-7 days.
The next assay concerns C. glabrata. The assay is described as above. Conditions: Nakaseomyces glabratus, RPMI 1640, culture 2-7 days.
Another assay relates to E. floccosum. Described as above. Conditions: Epidermophyton floccosum, RPMI 1640, culture 2-7 days.
For assay [1], the system named is Fusarium oxysporum vasinfectum. Described as above. Particulars: RPMI 1640, culture 2-7 days.
Another assay has as its system C. parapsilosis. Described as above. Conditions: Lodderomyces parapsilosis, RPMI 1640, culture 2-7 days.
The next assay has as its system C. tropicalis. The description is as above. Conditions: Candida tropicalis, RPMI 1640, culture 2-7 days.
For another assay, the system named is C. neoformans. The assay is described as above. Particulars: Cryptococcus neoformans, RPMI 1640, culture 2-7 days.
The test system of another assay is M. gypseum. Described as above. Particulars: Nannizzia gypsea, RPMI 1640, culture 2-7 days.
In a further assay the test system is C. Krusei. Described as above. Particulars: Pichia kudriavzevii, RPMI 1640, culture 2-7 days.
The subject of the next assay is Setosphaeria turcica. The assay is described as above. Conditions: Exserohilum turcicum, RPMI 1640, culture 2-7 days.
A further assay deals with HTB-94. Put plainly: In vitro anticancer MTT experiment. Conditions: concentration 5 ug/ml, 48 h or 72 h, read-out: inhibition ratio HTB-94. The method, boiled down: (§1)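 Reported inhibition ratio refers to 5 ug/ml compound, calculated from OD 570 nm against untreated-cell and medium-only references. MTT readout followed 48 h or 72 h drug exposure at 37° C., 5% CO2. Log-phase cells were plated at 6000-7000 per well in RPMI 1640 with 10% FCS.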

The next assay has as its system CRL-1469PANC-1. Nature of the assay: In vitro anticancer MTT experiment. Particulars: concentration 5 ug/ml, 48 h or 72 h, read-out: inhibition ratio CRL-1469PANC-1. The method, boiled down:
as §1

The subject of another assay is L1210. Nature of the assay: In vitro anticancer MTT experiment. Conditions: Mus musculus, concentration 5 ug/ml, 48 h or 72 h, read-out: inhibition ratio L1210. In outline: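 Cells in RPMI 1640 with 10% fetal calf serum were seeded at 6000-7000 per well, rested 12 h at 37° C., then exposed to compound for 48 h or 72 h. MTT was read as OD at 570 nm. Inhibition ratio was derived against untreated and blank wells, with reported values taken at 5 ug/ml.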

The next assay relates to AS24391. Put plainly: In vitro anticancer MTT experiment. Conditions: concentration 5 ug/ml, 48 h or 72 h, read-out: inhibition ratio AS24391. In outline: as §1
For a further assay, the system named is CRL-2233SNU-398. Nature of the assay: In vitro anticancer MTT experiment. Particulars: concentration 5 ug/ml, 48 h or 72 h, read-out: inhibition ratio CRL-2233SNU-398. The method, boiled down:
as §1

A further assay concerns B01092. Nature of the assay: In vitro anticancer MTT experiment. Particulars: concentration 5 ug/ml, 48 h or 72 h, read-out: inhibition ratio B01092. The method, boiled down: as §1
A further assay relates to HTB-95637. Nature of the assay: In vitro anticancer MTT experiment. Particulars: concentration 5 ug/ml, 48 h or 72 h, read-out: inhibition ratio HTB-95637. The method, boiled down:
as §1

In another assay the test system is CRL-1435PC-3. Nature of the assay: In vitro anticancer MTT experiment. Conditions: concentration 5 ug/ml, 48 h or 72 h, read-out: inhibition ratio CRL-1435PC-3. The method, boiled down: as §1
For a further assay, the system named is SGC7901. Nature of the assay: In vitro anticancer MTT experiment. Particulars: Homo sapiens, SGC-7901, concentration 5 ug/ml, 48 h or 72 h, read-out: inhibition ratio SGC7901. In outline:
as §1

The subject of the next assay is L428. Put plainly: In vitro anticancer MTT experiment. Particulars: Homo sapiens, L-428, concentration 5 ug/ml, 48 h or 72 h, read-out: inhibition ratio L428. The method, boiled down:
as §1

The next assay has as its system HTB-131MDA-MB-453. Nature of the assay: In vitro anticancer MTT experiment. Particulars: concentration 5 ug/ml, 48 h or 72 h, read-out: inhibition ratio HTB-131MDA-MB-453. The method, boiled down: as §1
Another assay has as its system HTB-38HT-29. Nature of the assay: In vitro anticancer MTT experiment. Particulars: concentration 5 ug/ml, 48 h or 72 h, read-out: inhibition ratio HTB-38HT-29. The method, boiled down:
as §1

A further assay concerns A375. Nature of the assay: In vitro anticancer MTT experiment. Conditions: Homo sapiens, A-375, concentration 5 ug/ml, 48 h or 72 h, read-out: inhibition ratio A375. The method, boiled down:
as §1

Another assay relates to FTC 133. Put plainly: In vitro anticancer MTT experiment. Particulars: Homo sapiens, concentration 5 ug/ml, 48 h or 72 h, read-out: inhibition ratio FTC 133. The method, boiled down: as §1

Broadly, the MIC is the lowest concentration that inhibits growth of the organism.

In the case of `O=C1/C(=C\Cl)CSc2ccc(F)cc21` [Compound 22, (E)-3-(chloromethylene)-6-fluorothiochroman-4-one], the MIC with Terchoderma was determined as 32 µg/mL (≈ 140 µM); in the assay with C. albicans it was 4 µg/mL (≈ 17.5 µM); against S. schenekn it was 8 µg/mL (≈ 35 µM); against gibberella, 4 µg/mL (≈ 17.5 µM); with C. glabrata, 8 µg/mL (≈ 35 µM); against E. floccosum it was 16 µg/mL (≈ 70 µM). In addition, the MIC in [1] worked out at 16 µg/mL (≈ 70 µM); against C. parapsilosis it was 16 µg/mL (≈ 70 µM); against C. tropicalis, 32 µg/mL (≈ 140 µM); against C. neoformans, 16 µg/mL (≈ 70 µM); in the assay with M. gypseum, 16 µg/mL (≈ 70 µM); with C. Krusei, 16 µg/mL (≈ 70 µM). Also, the MIC against Setosphaeria turcica was determined as 8 µg/mL (≈ 35 µM). The inhibition at 5 µg/mL with HTB-94 came to 51%; with CRL-1469PANC-1, 33.3%; with L1210, 86.7%; in the assay with AS24391, 43.5%; in the assay on CRL-2233SNU-398, 49%; with B01092 it was 43.6%. For the same molecule, the inhibition at 5 µg/mL in the assay on HTB-95637 was 36.9%; in the assay on CRL-1435PC-3, 30.5%; in the assay with SGC7901 it was 60.7%; with L428, 53.9%; in the assay on HTB-131MDA-MB-453 it was 55.9%; with HTB-38HT-29 it was 47.8%. For the same molecule, the inhibition at 5 µg/mL with A375 was 56.7%.
As to `Cc1ccc(S/C=C2/CSc3ccc(F)cc3C2=O)cc1F` [Compound 23, (E)-6-fluoro-3-(((3-fluoro-4-methylphenyl)thio)methylene)thiochroman-4-one], the MIC against S. schenekn is 64 µg/mL (≈ 191 µM); in the assay with gibberella, 16 µg/mL (≈ 47.8 µM); with C. glabrata it was 64 µg/mL (≈ 191 µM); against E. floccosum, 64 µg/mL (≈ 191 µM); in the assay with C. neoformans, 16 µg/mL (≈ 47.8 µM). Moreover, the inhibition at 5 µg/mL stood at 42.4% with FTC 133; 47.9% in the assay with HTB-94; 34.2% with CRL-1469PANC-1; 37.6% in the assay with L1210; 44.5% with AS24391; 53.3% with CRL-2233SNU-398. In addition, the inhibition at 5 µg/mL in the assay with B01092 came to 39%; with HTB-95637, 50.6%; with CRL-1435PC-3, 43.9%; in the assay on L428 it was 59.5%; in the assay with HTB-131MDA-MB-453, 53.5%; with HTB-38HT-29 it was 56.1%. Besides, the inhibition at 5 µg/mL in the assay with A375 turned out to be 49.2%.
On to `O=C1/C(=C\Cl)CSc2sccc21` [Compound 24, (E)-5-(chloromethylene)-5,6-dihydro-4H-thieno[2,3-b]thiopyran-4-one], for which the MIC against Terchoderma was 16 µg/mL (≈ 73.8 µM); in the assay with C. albicans, 16 µg/mL (≈ 73.8 µM); in the assay with S. schenekn, 32 µg/mL (≈ 148 µM); against gibberella it was 4 µg/mL (≈ 18.5 µM); in the assay on C. glabrata it was 16 µg/mL (≈ 73.8 µM); in the assay on E. floccosum it was 16 µg/mL (≈ 73.8 µM). The MIC in assay [1] was 16 µg/mL (≈ 73.8 µM); against C. parapsilosis, 4 µg/mL (≈ 18.5 µM); in the assay with C. tropicalis, 8 µg/mL (≈ 36.9 µM); in the assay with C. neoformans, 16 µg/mL (≈ 73.8 µM); with M. gypseum, 8 µg/mL (≈ 36.9 µM); with C. Krusei, 32 µg/mL (≈ 148 µM). Also, it took 16 µg/mL (≈ 73.8 µM) to inhibit growth in the assay with Setosphaeria turcica (MIC). Moreover, the inhibition at 5 µg/mL in the assay on FTC 133 came out at 45.8%; in the assay on HTB-94, 51.3%; in the assay on L1210, 85.4%; in the assay on AS24391, 37%; in the assay with CRL-2233SNU-398, 45.6%; with B01092 it was 56.8%. For the same molecule, the inhibition at 5 µg/mL in the assay on CRL-1435PC-3 is 39.4%; in the assay on SGC7901, 33.9%; with L428 it was 47.7%; in the assay with HTB-131MDA-MB-453, 47.6%; in the assay with HTB-38HT-29 it was 43.4%; with A375, 32.5%.
